This note sets out measurements from ChEMBL document CHEMBL1201862, “PubChem BioAssay data set” (2004).

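Where inhibition never reached the appropriate level, the endpoint shown equals the highest concentration tested. Otherwise, values were interpolated linearly from a five-concentration, 48-hour dose response in 96-well plates. Here, GI50 denotes the concentration required for 50% inhibition of growth.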 Calls of active or inactive are those of the source. Rule as the data show it: active = GI50 up to about 1.1 µM and inactive = higher.

Some test systems named below: LOX IMVI; T47D; A549; CCRF-CEM; SK-MEL-28; NCI-H460; NCI-H522; HOP-62; NCI-H23; NCI/ADR-RES; OVCAR-5; COLO 205; HCT-15; MCF7; NCI-H226; EKVX; HCT-116; M14.
Holding throughout (test): growth of human tumour cells (NCI), 48 h

In the case of `Nc1nc2c(C(=O)NCc3cccs3)nnn2c2cccc(Cl)c12`, the GI50 with LOX IMVI is > 100 µM (inactive); in the assay on T47D, 19.5 µM (inactive); in the assay with A549, > 100 µM (inactive); with CCRF-CEM, 22.3 µM (inactive); in the assay on SK-MEL-28, 92.3 µM (inactive); in the assay with NCI-H460, > 100 µM (inactive). Also, the GI50 in the assay with NCI-H522 is > 100 µM (inactive); with HOP-62 it was > 100 µM (inactive); with NCI-H23, 87.3 µM (inactive); in the assay on NCI/ADR-RES, > 100 µM (inactive); with OVCAR-5, 45.3 µM (inactive); in the assay on COLO 205, > 100 µM (inactive). Further, the GI50 in the assay on HCT-15 is > 100 µM; in the assay with MCF7, 53.8 µM (inactive); in the assay on NCI-H226, 92 µM (inactive); with EKVX, 57.8 µM (inactive); with HCT-116, > 100 µM (inactive); with M14, > 100 µM (inactive).
As for `CCCCC/N=C/c1c(O)c(O)c(C(C)C)c2cc(C)c(-c3c(C)cc4c(C(C)C)c(O)c(O)c(/C=N/CCCCC)c4c3O)c(O)c12`, the GI50 is 3.52 µM (inactive) with LOX IMVI; 3.98 µM (inactive) in the assay with T47D; 5.58 µM (inactive) in the assay with A549; 25.2 µM (inactive) with CCRF-CEM; 6.19 µM (inactive) in the assay on SK-MEL-28; 5.65 µM (inactive) in the assay with NCI-H460. Besides, the GI50 is 5.05 µM (inactive) in the assay on NCI-H522; 15.3 µM (inactive) in the assay with HOP-62; 12 µM (inactive) in the assay on NCI-H23; 27.1 µM (inactive) in the assay on NCI/ADR-RES; 19 µM (inactive) in the assay on OVCAR-5; 2.75 µM (inactive) in the assay with COLO 205. The GI50 with HCT-15 was 5.85 µM; in the assay on MCF7 it was 4.81 µM (inactive); with NCI-H226, 23 µM (inactive); with EKVX it was 7.96 µM (inactive); in the assay with HCT-116, 11 µM (inactive); with M14, 38.1 µM (inactive).
As to `CC(C)C1OC(/C=C/c2ccccc2)OCC1(C)C` (stereo not drawn), the GI50 with LOX IMVI is 18.9 µM (inactive); in the assay on T47D, 31.4 µM (inactive); with A549, 29.9 µM (inactive); in the assay with CCRF-CEM it was 20.9 µM (inactive); with SK-MEL-28, 53.3 µM (inactive); in the assay on NCI-H460, 17.1 µM (inactive). In addition, the GI50 with NCI-H522 is 13.8 µM (inactive); in the assay on HOP-62, 32.1 µM (inactive); with NCI-H23, 27.7 µM (inactive); with NCI/ADR-RES, 41.6 µM (inactive); in the assay with OVCAR-5 it was 44.5 µM (inactive); with COLO 205, 16.6 µM (inactive). The GI50 with HCT-15 is 24.8 µM; in the assay with MCF7, 31.8 µM (inactive); in the assay on NCI-H226 it was 23.5 µM (inactive); with EKVX, 27.5 µM (inactive); in the assay on HCT-116, 25.4 µM (inactive); in the assay on M14, 36.2 µM (inactive).
`COc1ccc(/N=C(C)/C(C)=N/c2ccc(OC)cc2)cc1`: the GI50 in the assay with LOX IMVI was 5.02 µM (inactive); with T47D it was 77.1 µM (inactive); in the assay on A549 it was 37.9 µM (inactive); in the assay with CCRF-CEM, 39.1 µM (inactive); with SK-MEL-28 it was > 100 µM (inactive); in the assay with NCI-H460, 20.3 µM (inactive). In addition, the GI50 with NCI-H522 was > 100 µM (inactive); in the assay with HOP-62 it was > 100 µM (inactive); with NCI-H23, 73.6 µM (inactive); in the assay with NCI/ADR-RES it was 62.8 µM (inactive); in the assay with OVCAR-5, > 100 µM (inactive); in the assay with COLO 205, 14.4 µM (inactive). Moreover, the GI50 was 15.6 µM in the assay on HCT-15; > 100 µM (inactive) with MCF7; > 100 µM (inactive) in the assay with NCI-H226; > 100 µM (inactive) in the assay on EKVX; 72.6 µM (inactive) with HCT-116; 9.91 µM (inactive) in the assay on M14.
As for `O=C(N/N=C/c1c(-c2ccccc2)no[n+]1[O-])N1CCOCC1`, the GI50 in the assay with LOX IMVI, with T47D, in the assay with A549, in the assay with CCRF-CEM, in the assay with SK-MEL-28 and in the assay on NCI-H460 was > 100 µM (inactive) in each case. The GI50 in the assay on NCI-H522, in the assay on HOP-62, in the assay with NCI-H23, in the assay with NCI/ADR-RES, with OVCAR-5 and in the assay on COLO 205 was > 100 µM (inactive) in each case. Also, the GI50 in the assay on HCT-15 is > 100 µM; in the assay on MCF7, > 100 µM (inactive); in the assay on NCI-H226 it was > 100 µM (inactive); in the assay with EKVX, > 100 µM (inactive); with HCT-116, > 100 µM (inactive); in the assay with M14, > 100 µM (inactive).
For `Cc1c(C=C(C#N)C#N)c(=O)n(C)c(=O)n1C`, the GI50 is > 100 µM (inactive) with LOX IMVI; > 100 µM (inactive) in the assay with T47D; > 100 µM (inactive) with A549; 19.6 µM (inactive) in the assay on CCRF-CEM; > 100 µM (inactive) with SK-MEL-28; > 100 µM (inactive) with NCI-H460. Also, the GI50 is 31.4 µM (inactive) in the assay with NCI-H522; > 100 µM (inactive) with HOP-62; > 100 µM (inactive) in the assay on NCI-H23; > 100 µM (inactive) in the assay with NCI/ADR-RES; > 100 µM (inactive) in the assay with OVCAR-5; > 100 µM (inactive) in the assay with COLO 205. For the same compound, the GI50 in the assay with HCT-15 is > 100 µM; in the assay with MCF7 it was > 100 µM (inactive); with NCI-H226 it was > 100 µM (inactive); in the assay on EKVX it was 81.5 µM (inactive); in the assay on HCT-116, > 100 µM (inactive); in the assay on M14, > 100 µM (inactive).
For `Clc1ncnc2c1nc(C#Cc1ccccc1)n2C1CCCCO1` (stereo not drawn), the GI50 was 2.02 µM (inactive) in the assay on LOX IMVI; 1.7 µM (inactive) in the assay on T47D; 1.99 µM (inactive) in the assay with A549; 2.33 µM (inactive) in the assay on CCRF-CEM; 2.21 µM (inactive) in the assay on SK-MEL-28; 3.14 µM (inactive) with NCI-H460. The GI50 in the assay with NCI-H522 was 1.81 µM (inactive); in the assay on HOP-62 it was 2.38 µM (inactive); in the assay on NCI-H23, 1.99 µM (inactive); in the assay with NCI/ADR-RES it was 2.75 µM (inactive); with OVCAR-5, 2.42 µM (inactive); in the assay on COLO 205, 1.62 µM (inactive). The GI50 with HCT-15 was 1.14 µM; with MCF7 it was 1.37 µM (inactive); in the assay with NCI-H226, 2.49 µM (inactive); in the assay with EKVX, 1.95 µM (inactive); in the assay with HCT-116, 1.82 µM (inactive); in the assay on M14 it was 2.14 µM (inactive).
`COC(=O)c1ccccc1C1CN=NC12Cc1c(C)ccc(C)c1C2=O` (stereo not drawn): the GI50 in the assay with LOX IMVI, in the assay on T47D, in the assay with A549, with CCRF-CEM, with SK-MEL-28 and in the assay on NCI-H460 was > 100 µM (inactive) throughout. For the same compound, the GI50 in the assay with NCI-H522, in the assay with HOP-62, in the assay with NCI-H23, with NCI/ADR-RES, in the assay with OVCAR-5 and in the assay on COLO 205 was > 100 µM (inactive) throughout. In addition, the GI50 in the assay with HCT-15 was > 100 µM; in the assay on MCF7, > 100 µM (inactive); in the assay on NCI-H226, > 100 µM (inactive); in the assay on EKVX, > 100 µM (inactive); in the assay on HCT-116, 82.6 µM (inactive); in the assay with M14, > 100 µM (inactive).
As to `COc1ccc(C2=NNC(=O)c3ccccc3N2c2nc(-c3cccs3)nc3ccc(Br)cc23)cc1`, the GI50 in the assay on LOX IMVI is 27.1 µM (inactive); with T47D, 23.7 µM (inactive); in the assay with A549, 60.7 µM (inactive); in the assay with CCRF-CEM it was 5.25 µM (inactive); with SK-MEL-28 it was > 100 µM (inactive); with NCI-H460 it was 40.4 µM (inactive). Further, the GI50 in the assay with NCI-H522 was 64.9 µM (inactive); in the assay on HOP-62, 17.6 µM (inactive); in the assay on NCI-H23, 31 µM (inactive); with NCI/ADR-RES, 19.1 µM (inactive); in the assay with OVCAR-5 it was 61.4 µM (inactive); in the assay on COLO 205, 73.8 µM (inactive). Further, the GI50 is 34.2 µM in the assay on HCT-15; 68.1 µM (inactive) in the assay on MCF7; 19.8 µM (inactive) with NCI-H226; 24.6 µM (inactive) with EKVX; 69.5 µM (inactive) in the assay on HCT-116; 37.4 µM (inactive) with M14.
For the compound `COC(=O)c1ccccc1C1CN=NC12Cc1c(ccc(C)c1C)C2=O` (stereo not drawn), the GI50 in the assay on LOX IMVI, in the assay with T47D, with A549, in the assay on CCRF-CEM, in the assay with SK-MEL-28 and in the assay on NCI-H460 was > 100 µM (inactive) each time. The GI50 in the assay on NCI-H522 is > 100 µM (inactive); in the assay with HOP-62 it was 57.3 µM (inactive); in the assay on NCI-H23, > 100 µM (inactive); with NCI/ADR-RES, > 100 µM (inactive); in the assay on OVCAR-5 it was > 100 µM (inactive); in the assay on COLO 205, > 100 µM (inactive). The GI50 is > 100 µM with HCT-15; > 100 µM (inactive) in the assay with MCF7; > 100 µM (inactive) in the assay with NCI-H226; > 100 µM (inactive) with EKVX; > 100 µM (inactive) with HCT-116; > 100 µM (inactive) in the assay on M14.
As for `CN(C)CCCc1c[nH]c2ccccc12`, the GI50 in the assay on LOX IMVI, in the assay on T47D, in the assay with A549, in the assay on CCRF-CEM, in the assay with SK-MEL-28 and with NCI-H460 was > 100 µM (inactive) throughout. Besides, the GI50 with NCI-H522, with HOP-62, with NCI-H23, in the assay with NCI/ADR-RES, in the assay with OVCAR-5 and in the assay with COLO 205 was > 100 µM (inactive) each time. Also, the GI50 in the assay with HCT-15 is > 100 µM; in the assay with MCF7, > 100 µM (inactive); in the assay with NCI-H226, > 100 µM (inactive); in the assay with EKVX it was > 100 µM (inactive); with HCT-116 it was > 100 µM (inactive); with M14, > 100 µM (inactive).
